Here are results for 14 compounds from patent US7115658B2 (priority 2002, dated 2006).

T1 sequence (P26663 2420-3010): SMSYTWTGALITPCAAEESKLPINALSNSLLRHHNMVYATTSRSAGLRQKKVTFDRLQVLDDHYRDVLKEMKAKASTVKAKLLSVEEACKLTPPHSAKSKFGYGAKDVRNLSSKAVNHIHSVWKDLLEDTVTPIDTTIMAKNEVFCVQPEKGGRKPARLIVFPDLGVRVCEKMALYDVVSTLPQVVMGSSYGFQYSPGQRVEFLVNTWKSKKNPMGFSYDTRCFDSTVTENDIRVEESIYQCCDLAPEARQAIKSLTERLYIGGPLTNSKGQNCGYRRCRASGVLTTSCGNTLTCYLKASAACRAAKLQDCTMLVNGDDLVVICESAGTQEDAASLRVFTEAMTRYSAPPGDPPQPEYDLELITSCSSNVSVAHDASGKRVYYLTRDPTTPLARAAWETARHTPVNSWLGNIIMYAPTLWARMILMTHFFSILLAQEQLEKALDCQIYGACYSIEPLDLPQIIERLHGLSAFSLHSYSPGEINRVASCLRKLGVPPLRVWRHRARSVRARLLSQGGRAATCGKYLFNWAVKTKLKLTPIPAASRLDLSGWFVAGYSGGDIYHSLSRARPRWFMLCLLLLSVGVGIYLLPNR

The assay has as its target T1, Recombinant HCV polymerase (Hepatitis C virus genotype 1b, UniProt P26663).
T1 construct: 2.5 pmoles (0.15 μg) HCV polymerase protein
The experiment in a line: HCV Polymerase Inhibition Assay. It is filed as biochemical. The following applies: primer/template-directed transcription, 30 minutes at 30° C.; category symbol. In outline:
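Recombinant genotype 1b polymerase (2.5 pmol) extended biotin-dG12 on poly(rC)300 with 1 μM GTP plus α-32P-GTP, pH 7.2, 30 min at 30 °C, 1% DMSO final; DE-filter-bound product counted. IC50 fitted from triplicate cpm, refitted with enzyme-concentration (30 nM) tight-binding equation when below 200 nM.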
One may read the IC50 as the midpoint of a concentration-inhibition curve. As to `CCCCN(C1=C(O)C[C@@](CCc2cccc(O)c2)(C2CCCC2)OC1=O)c1ccccc1` [Example 157, (S)-3-(butyl-phenyl-amino)-6-Cyclopentyl-4-hydroxy-6-[2-(3-hydroxy-phenyl)-ethyl]-5,6-dihydro-pyran-2-one], the IC50 fell in the range of 1 to 10 µM.

As to `COc1cccc(CC2C(=O)CC(CCc3ccc(OC)cc3OC)(C3CCCC3)OC2=O)c1` (centres unmarked) [Example 162, 6-Cyclopentyl-6-[2-(2,4-dimethoxy-phenyl)-ethyl]-3-(3-methoxy-benzyl)-dihydro-pyran-2,4-dione], the IC50 was 1 to 10 µM.

In the case of `COc1ccc(CCC2(C3CCCC3)CC(=O)C(Oc3ccccc3)C(=O)O2)c(OC)c1` (centres unmarked) [Example 163, 6-Cyclopentyl-6-[2-(2,4-dimethoxy-phenyl)-ethyl]-3-phenoxy-dihydro-pyran-2,4-dione], the IC50 fell in the range of 10 to 50 µM.

Consider `COc1ccc(CCC2(C3CCCC3)CC(=O)C(Oc3ccc(Cl)cc3)C(=O)O2)c(OC)c1` (centres unmarked) [Example 164, 3-(4-Chloro-phenoxy)-6-cyclopentyl-6-[2-(2,4-dimethoxy-phenyl)-ethyl]-dihydro-pyran-2,4-dione], for which the IC50 lay within 10 to 50 µM.

Consider `COc1ccc(CCC2(C3CCCC3)CC(=O)C(C(C)=O)C(=O)O2)c(OC)c1` (centres unmarked) [Example 166, 3-Acetyl-6-cyclopentyl-6-[2-(2,4-dimethoxy-phenyl)-ethyl]-dihydro-pyran-2,4-dione], for which the IC50 lay within 10 to 50 µM.

For `CC(=O)C1C(=O)CC(CCc2cccc(Cl)c2)(C2CCCC2)OC1=O` (centres unmarked) [Example 167, 3-Acetyl-6-[2-(3-chloro-phenyl)-ethyl]-6-cyclopentyl-dihydro-pyran-2,4-dione], the IC50 lay within 10 to 50 µM.

`COc1ccc(CCC2(C3CCCC3)CC(=O)C(C(C)=O)C(=O)O2)cc1` (centres unmarked) [Example 168, 3-Acetyl-6-cyclopentyl-6-[2-(4-methoxy-phenyl)-ethyl]-dihydro-pyran-2,4-dione]: the IC50 was 10 to 50 µM.

Take `COc1ccc(CCC2(C3CCCC3)CC(=O)C(C(=O)Cc3ccccc3)C(=O)O2)c(OC)c1` (centres unmarked) [Example 169, 6-Cyclopentyl-6-[2-(2,4-dimethoxy-phenyl)-ethyl]-3-phenylacetyl-dihydro-pyran-2,4-dione]: the IC50 fell in the range of 10 to 50 µM.

Consider `O=C(Cc1ccccc1)C1C(=O)CC(CCc2cccc(Cl)c2)(C2CCCC2)OC1=O` (centres unmarked) [Example 170, 6-[2-(3-Chloro-phenyl)-ethyl]-6-cyclopentyl-3-phenylacetyl-dihydro-pyran-2,4-dione], for which the IC50 fell in the range of 10 to 50 µM.

With `COc1ccc(CCC2(C3CCCC3)CC(=O)C(C(=O)Cc3ccccc3)C(=O)O2)cc1` (centres unmarked) [Example 171, 6-Cyclopentyl-6-[2-(4-methoxy-phenyl)-ethyl]-3-phenylacetyl-dihydro-pyran-2,4-dione], the IC50 was 10 to 50 µM.

Take `COc1ccc(CCC2(C3CCCC3)CC(=O)C(C(=O)Cc3cccnc3)C(=O)O2)c(OC)c1` (centres unmarked) [Example 172, 6-Cyclopentyl-6-[2-(2,4-dimethoxy-phenyl)-ethyl]-3-(2-pyridin-3-yl-acetyl)-dihydro-pyran-2,4-dione]: the IC50 lay within 1 to 10 µM.

Take `COc1ccc(CCC2(C3CCCC3)CC(=O)C(C(=O)Cc3cccnc3)C(=O)O2)cc1` (centres unmarked) [Example 173, 6-Cyclopentyl-6-[2-(4-methoxy-phenyl)-ethyl]-3-(2-pyridin-3-yl-acetyl)-dihydro-pyran-2,4-dione]: the IC50 lay within 1 to 10 µM.

Turning to `O=C(Cc1cccnc1)C1C(=O)CC(CCc2cccc(Cl)c2)(C2CCCC2)OC1=O` (centres unmarked) [Example 174, 6-[2-(3-Chloro-phenyl)-ethyl]-6-cyclopentyl-3-(2-pyridin-3-yl-acetyl)-dihydro-pyran-2,4-dione], the IC50 was in the range of 1 to 10 µM.

Regarding `COc1ccc(CCC2(C3CCCC3)CC(=O)C(C(=O)c3ccccc3)C(=O)O2)c(OC)c1` (centres unmarked) [Example 175, 3-Benzoyl-6-cyclopentyl-6-[2-(2,4-dimethoxy-phenyl)-ethyl]-dihydro-pyran-2,4-dione], the IC50 lay in the range of 10 to 50 µM.
